In patent US6573274B1, “Sulfonamide compounds and uses thereof as medicines” (Fujisawa Pharmaceutical Co. Ltd., priority 1998, dated 2003):

How the values were obtained:
db/db mice = details: female db/db mice; Dose 1 mg/kg, drug mixed with diet; difference between db/db control group and +/+ mice taken as 100%
Protocol: Blood Sugar Level Depressing Activity in db/db Mice
Female C57BL/KsJ-dbm db+/db+, C57BL/KsJ-dbm +m/+m (Jackson Laboratory) mice (5 weeks old) were purchased and subjected to the test after 2-3 weeks of acclimating period.
The test drug was mixed with a powder diet (CE-2, Clea Japan, Inc.) in a mortar. In the case of administration in 100 mg/kg, the mixing proportion was 0.1%, in the case of 30 mg/kg, the proportion was 0.03% and in the case of 10 mg/kg, the proportion was 0.01%. The diet was changed twice a week for each group. The amount of the diet given and the amount left were recorded and the diet intake was calculated by determining the difference.
The female db/db mice were grouped according to body weight, blood sugar level and triglyceride concentration in plasma. […] The blood sugar level, triglyceride concentration in plasma and insulin concentration in plasma were measured at day 0 and day 14, and blood sugar level and triglyceride concentration in blood were measured at day 7.
Blood sugar level was measured using 10-15 μl of plasma and in accordance with glucose oxidase method (glucose CII-Test Wako, Wako Pure Chemicals Co., Ltd.). The triglyceride concentration in plasma was measured using 10-15 μl of plasma and in accordance with GPO-p-chlorophenol method (triglyceride G-Test Wako) or GPO-DAOS method (triglyceride E-Test Wako). […]

[1] = Oral absorption (Cmax) in rats; format: in vivo; details: sodium salt compared to the free compound
[2] = Oral absorption (Cmax) in dogs; format: in vivo; details: sodium salt compared to the free compound

Compound | melting point [°C] | also measured
CCCOc1ccc(Cn2c(C)nc3c(C)cc(C(=O)NS(=O)(=O)c4ccc(C)cc4)nc32)c(Cl)c1 [Compound A, 3-(2-Chloro-4-(1-propoxy)benzyl)-2,7-dimethyl-5-[(4-methylbenzene)sulfonylcarbamoyl]-3H-imidazo[4,5-b]pyridine] | – | Blood sugar decrease (%) (db/db mice): 97%
CCCCCS(=O)(=O)NC(=O)c1ccc2nc(C)n(Cc3ccc(OCC4CCCCC4)cc3Cl)c2n1.[Na] [Example 85, 3-[2-chloro-4-(cyclohexylmethyloxy)benzyl]-2-methyl-5-(1-pentanesulfonylcarbamoyl)-3H-imidazo[4,5-b]pyridine sodium salt] | > 250 | Cmax, times greater than the free (non-salt) compound ([1]; rats, oral): 2 to 3 times; oral absorption as compared to the free (non-salt) compound ([1]; demonstrated by Cmax in rats and dogs): markedly improved; Cmax, times greater than the free (non-salt) compound [2]: about 16 times
CCCCCS(=O)(=O)NC(=O)c1ccc2nc(C)n(Cc3ccc4c(nc(C)n4C)c3Cl)c2n1 [Example 120, 3-[(4-chloro-1,2-dimethyl-1H-benzimidazol-5-yl)methyl]-2-methyl-5-(1-pentanesulfonylcarbamoyl)-3H-imidazo[4,5-b]pyridine] | 229 to 231 | –
CCCCCS(=O)(=O)NC(=O)c1ccc2nc(C)n(Cc3ncc(Cl)cc3Cl)c2n1 [Example 123, 3-[(3,5-dichloropyridin-2-yl)methyl]-2-methyl-5-(1-pentanesulfonylcarbamoyl)-3H-imidazo[4,5-b]pyridine] | 155 to 156 | –
CCCCCS(=O)(=O)NC(=O)c1ccc2nc(C)n(Cc3ccc(-c4ccccc4)nc3Cl)c2n1 [Example 127, 3-[(2-chloro-6-phenylpyridin-3-yl)methyl]-2-methyl-5-(1-pentanesulfonylcarbamoyl)-3H-imidazo[4,5-b]pyridine] | 224 to 225 | –
CCCCCS(=O)(=O)NC(=O)c1ccc2nc(C)n(Cc3ncc(NC(=O)OC(C)(C)C)cc3Cl)c2n1 [Example 129, 3-[(5-(N-(tert-butoxycarbonyl)amino)-3-chloropyridin-2-yl)methyl]-2-methyl-5-(1-pentanesulfonylcarbamoyl)-3H-imidazo[4,5-b]pyridine] | 193 to 194 | –
CCCCCS(=O)(=O)NC(=O)c1ccc2nc(C)n(Cc3ncc(NC(=O)OCC)cc3Cl)c2n1 [Example 132, 3-[(3-chloro-5-(N-(ethoxycarbonyl)amino)pyridin-2-yl)methyl]-2-methyl-5-(1-pentanesulfonylcarbamoyl)-3H-imidazo[4,5-b]pyridine] | 232 to 233 | –
CCCCCS(=O)(=O)NC(=O)c1ccc2nc(C)n(Cc3ncc(NC(=O)OC(C)C)cc3Cl)c2n1 [Example 135, 3-[(5-(N-(isopropoxycarbonyl)amino)-3-chloropyridin-2-yl)methyl]-2-methyl-5-(1-pentanesulfonylcarbamoyl)-3H-imidazo[4,5-b]pyridine] | 228 to 230 | –
CCC/C=C/S(=O)(=O)NC(=O)c1ccc2nc(C)n(Cc3ncc(NC(=O)OC(C)C)cc3Cl)c2n1 [Example 136, 3-[(5-(N-(isopropoxycarbonyl)amino)-3-chloropyridin-2-yl)methyl]-2-methyl-5-((E)-1-penten-1-ylsulfonylcarbamoyl)-3H-imidazo[4,5-b]pyridine] | 242 to 244 | –
CCCCCS(=O)(=O)NC(=O)c1ccc2nc(C)n(Cc3ccc(N(C)C(=O)OCC)cc3Cl)c2n1 [Example 145, 3-(4-(N-(ethoxycarbonyl)-N-methylamino)-2-chlorobenzyl)-2-methyl-5-(1-pentanesulfonylcarbamoyl)-3H-imidazo[4,5-b]pyridine] | 149 to 150 | –
CCCCCS(=O)(=O)NC(=O)c1ccc2nc(C)n(Cc3ccc(N(C)C(=O)OCc4ccccc4)cc3Cl)c2n1 [Example 146, 3-(4-(N-(benzyloxycarbonyl)-N-methylamino)-2-chlorobenzyl)-2-methyl-5-(1-pentanesulfonylcarbamoyl)-3H-imidazo[4,5-b]pyridine] | 120 to 121 | –
